Measurements published in US9896423B2, “Deuterium substituted 1-[2-(2,4-dimethyl-phenylsulfanyl)-phenyl]piperazine compound or derivatives thereof, and pharmaceutical composition and use thereof” (Jiangsu Jibeier Pharmaceutical Co. Ltd., priority 2014, dated 2018).
Values joined by “and” are separate entries in the source; they are usually repeats but may differ in a detail not shown here. Equal values may be shown once. Where a name gives a salt, the structure may show the parent alone. Read-outs that look alike come from different tables or passages of the source.

Assay: Pharmacokinetic test in rats, gavage administration
Assay type: in vivo, SD rats
Method: The preferred compound of the present disclosure was assessed in rats for its pharmacokinetic profile.
SD rats, male and female, weighing 150 to 250 g
Mobile phase: 10 mM ammonium formate aqueous solution:methanol=15:85
The ionization source was electrospray ionization source. The detection mode was positive mode. Multiple reaction monitoring (MRM) was used as the scanning mode. The ion reaction for the quantitative analysis was the following: m/z was 305.2\150.0 for XX, and 256.1\167.1 for diphenhydramine (the internal standard).
XX or YY was orally administered with single dose of 20 mg/kg to six SD rats, one half of which were male and the other half was female. XX or YY was dissolved in 10% hydroxypropyl-β-cyclodextrin. […]
After the blood collection, the tubes were immediately gently turned upside down at least five times to ensure sufficient mixing, and placed on ice. Heparin was added for anticoagulation. The samples were centrifuged at 8000 rpm for 5 min to separate serum from erythrocyte. The serum was transferred with a pipettor to 2 mL polypropylene (PP) tubes, which were marked with the name of the compound and the time points, and stored in a refrigerator at −40° C. before LC-MS analysis. Samples with high concentrations were diluted with rat blank plasma.
2.5 μL of Meth-H2O and 5 μL of the internal standard solution (20 ng/mL, IS) were added to 50 μL of the plasma. Subsequently, 150 μL of methanol was added to the mixture to precipitate protein and the samples were then centrifuged at 13000 rpm for 5 min. The upper organic phase was taken out, filtrated with a 0.22 μM microporous membrane, and 2 μL of the sample was injected for the LC-MS analysis.

[1] = both sexes, Sprague-Dawley, rat, plasma, oral, 20 mg/kg, 20 mg/kg oral, individual rats 1-6, read-out: Concentrations in Plasma of Rats after Oral Administration
[2] = both sexes, Sprague-Dawley, rat, plasma, oral, 20 mg/kg, 20 mg/kg oral, mean of 6 rats, read-out: Concentrations in Plasma of Rats after Oral Administration, Mean ± SD
[3] = rats, oral 20 mg/kg, individual rats 1-6, 20 mg/kg

[2H]C([2H])([2H])c1ccc(Sc2ccccc2N2CCNCC2)c(C([2H])([2H])[2H])c1 [XX, 1-{2-[2,4-bis(trideuteriomethyl)phenylsulfanyl]phenyl}piperazine hydrobromic acid salt]
concentration at 1 h (both sexes, Sprague-Dawley, rat, plasma, oral, 20 mg/kg, 20 mg/kg oral, 1 h, mean of 6 rats, read-out: Concentrations in Plasma of Rats after Oral Administration, Mean ± SD): 95.8 ± 32.9 ng/mL | concentration at 1.5 h [1]: 73.4 ng/mL | concentration at 1.5 h [2]: 103 ± 26.9 ng/mL | concentration at 2 h [1]: 78.6 ng/mL | concentration at 2 h [2]: 98.2 ± 19.5 ng/mL | concentration at 3 h [1]: 58 ng/mL | concentration at 3 h [2]: 68.7 ± 12 ng/mL | concentration at 4 h [1]: 63.4 ng/mL | concentration at 4 h [2]: 65.1 ± 10.4 ng/mL | concentration at 6 h [1]: 46.1 ng/mL | concentration at 6 h [2]: 44.1 ± 7.27 ng/mL | concentration at 8 h [1]: 22.1 ng/mL | concentration at 8 h [2]: 23.5 ± 4.49 ng/mL | concentration at 10 h [1]: 16.7 ng/mL | concentration at 10 h [2]: 16.5 ± 2.41 ng/mL | concentration at 12 h [1]: 8.86 ng/mL | concentration at 12 h [2]: 8.24 ± 1.69 ng/mL | concentration at 14 h (both sexes, Sprague-Dawley, rat, plasma, oral, 20 mg/kg, 20 mg/kg oral, 14 h, mean of 6 rats, read-out: Concentrations in Plasma of Rats after Oral Administration, Mean ± SD): 4.27 ± 1.58 ng/mL | concentration at 24 h (both sexes, Sprague-Dawley, rat, plasma, oral, 20 mg/kg, 20 mg/kg oral, 24 h, mean of 6 rats, read-out: Concentrations in Plasma of Rats after Oral Administration, Mean ± SD): 0.75 ± 0.51 ng/mL | bioavailability (both sexes, Sprague-Dawley, rat, plasma, oral, 20 mg/kg, rats, oral 20 mg/kg vs iv 2 mg/kg, n = 6, read-out: F % (absolute bioavailability), Mean ± SD): 12.2 ± 1.72% | AUC(0-t) (both sexes, Sprague-Dawley, rat, plasma, po, 20 mg/kg, gavage administration of 20 mg/kg, rats, read-out: AUC0-t in the rats' plasma): 583 ± 82.7 ng·h/mL | AUC0-t increased comparing with that of its non-deuterium counterpart (rats, gavage 20 mg/kg, relative to Vortioxetine): 19% | F % (rats, oral 20 mg/kg vs iv 2 mg/kg, individual rats 1-6): 11.5% and 10.1% and 13.8% and 14.6% and 11.9% | AUC0-t (area under the plasma concentration-time curve from zero to the last sampling time) [3]: 552.3 µg·h/L and 487.5 µg·h/L and 659.3 µg·h/L and 703.9 µg·h/L and 569.8 µg·h/L | AUC0-∞ [3]: 552.5 µg·h/L and 488.9 µg·h/L and 666.0 µg·h/L and 705.3 µg·h/L and 571.4 µg·h/L | Cmax [3]: 91.6 µg/L and 77.8 µg/L and 120.8 µg/L and 144 µg/L and 115.8 µg/L | MRT0-∞ [3]: 4.92 h and 5.44 h and 5.08 h and 4.24 h and 4.28 h | t1/2 [3]: 4.0 h and 1.7 h and 2.8 h and 3.5 h and 2.6 h and 2.9 h
